Several values for one entry are separate records, joined by “and”; a condition that tells them apart may be missing. Equal entries are not always repeated.
System: 777334-354-R2-J4-PDC tumor spheroids with HUVEC/MSC, viability
Assay: Anticancer human tumor 777334-354-R2-J4-PDC patient-derived pancreatic adenocarcinoma cell line growth inhibition [GQUAD]
Conditions: for viability, T/C: stronger effect = lower value
From the text: DNA G-quadruplex Stabilizer Agents in Combinations in Complex Spheroids
A high-throughput screen of multi-cell type tumor spheroids was designed to identify active combinations of DNA G-quadruplex stabilizer agents and targeted small molecules. Complex spheroids include a stromal component modeled by human endothelial cells (HUVEC) and fibroblasts modeled by human mesenchymal stem cells (MSCs). The concentration ranges selected for each drug and investigational agent were based upon clinically achievable concentrations if the clinical Cmax of the agent was known.
Compounds. The drugs and investigational agents: pidnarulex (CX-5461; NSC782164), APTO-253 (NSC789042), BRACO-19 (NSC847499), peposertib (NSC802822), ceralasertib (NSC780249), elimusertib (NSC800525), camonsertib (NSC841442), AZD-1390 (NSC803789), olaparib (NSC753686), talazoparib (NSC767125), ART-558 (NSC835418), sotorasib (NSC818433), MRTX-1133 (NSC836407), SN-38 (NSC673596), topotecan (NSC609699), etoposide (NSC141540), doxorubicin (NSC123127), gemcitabine (NSC613327), 5-fluorouracil (NSC19893), paclitaxel (NSC125973), vemurafenib (NSC761431), panobinostat (NSC761190), R-306465 (JNJ-16241199; NSC773264), adavosertib (NSC754352), TP-3654 (NSC805149), carboplatin (NSC241240), KSQ-4279 (NSC840948), and staurosporine (NSC755774) were obtained from the National Cancer Institute (NCI) Developmental Therapeutics Program Chemical Repository (34). The FDA-approved anticancer drug set is available from the NCI Developmental Therapeutics Program. […] The stock solutions were prepared in dimethyl sulfoxide (DMSO, Sigma-Aldrich, St. Louis, MO, cat. D2650) at 800-fold the tested concentration and stored at -70 degrees C prior to their use. All drugs and investigational agents were tested over a range starting from a high concentration at or near the clinical Cmax and decreasing in half-log increments. If the clinical Cmax for an agent had not been determined, the highest concentration tested was 10 microM.
2.3 Cell Culture. All cells were maintained in an incubator at 37 degrees C and 5% CO2 with 95% humidity. The PDC lines were cultured according to standard operating procedures established by the NCI PDMR. All PDCs were thawed and cultured in Matrigel-coated flasks prepared with a working solution of 1X Ham's F-12 nutrient mix, without supplementation (Invitrogen, cat. 11765054), 100 U/mL penicillin-streptomycin (Invitrogen, cat. 15140122), and 2.5% Matrigel (Corning Inc., cat. 354248) for the first three passages. The 857933-349-R-J2-PDC line was cultured in 6C/Colon 1B media, which includes advanced DMEM/F-12 (Thermo Fisher Scientific, cat. 12634028), 10 mM HEPES (Thermo Fisher Scientific, cat. 15630080), 1X GlutaMAX supplement (Thermo Fisher Scientific, cat. 35050061), 0.1 mg/mL primocin (InvivoGen, cat. ant-pm-2), 10% defined fetal bovine serum, heat inactivated (HyClone Laboratories Inc., cat. SH30070.03HI), 50% L-WRN conditioned media (ATCC, cat. CRL-3276), 1.25 mM N-Acetyl-L-cysteine (Sigma-Aldrich, cat. A9165), 10 mM nicotinamide (Sigma-Aldrich, cat. N0636), 1X B-27 supplement (Thermo Fisher Scientific, cat. 17504044), 1X N-2 supplement (Thermo Fisher Scientific, cat. 17502048), 10 microM Y-27632 dihydrochloride (Tocris Bioscience, cat. 1254), and 50 ng/mL human EGF recombinant protein (Thermo Fisher Scientific, cat. PHG0311). The 485176-168-R4-J1-PDC line was cultured in Panc media, which includes all 6C/Colon 1B media components plus 100 ng/mL human FGF-10 (Thermo Fisher Scientific, cat. 100-26), 500 nM SB-431542 (Selleckchem, cat. S1067), and gastrin (Tocris, cat. 3006).
[…]
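Further: spheroids exposed to compounds for 7 days before readout.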

SMILES: C=CC(=O)N1CCN(c2nc(=O)n(-c3c(C)ccnc3C(C)C)c3nc(-c4c(O)cccc4F)c(F)cc23)C(C)C1 (stereo not given) + Cc1[nH]c2ccc(F)cc2c1-c1nc2c3cccnc3c3ncccc3c2[nH]1
- IC50 (curve of first compound, second compound 0.0316 µM): > 10 µM
- IC50 (curve of first compound, second compound 0.1 µM): > 10 µM
- IC50 (curve of first compound, second compound 0.316 µM): > 10 µM
- IC50 (curve of first compound, second compound 1 µM): > 10 µM
- IC50 (curve of first compound, second compound 3.16 µM): < 0.0316 µM
- IC50 (curve of first compound, second compound 10 µM): < 0.0316 µM
- viability, T/C (second compound 0.0316 µM, first compound 0.0316 µM): 108%
- viability, T/C (second compound 0.0316 µM, first compound 0.1 µM): 86.6%
- viability, T/C (second compound 0.0316 µM, first compound 0.316 µM): 111%
- viability, T/C (second compound 0.0316 µM, first compound 1 µM): 95.7%
- viability, T/C (second compound 0.0316 µM, first compound 3.16 µM): 118%
- viability, T/C (second compound 0.0316 µM, first compound 10 µM): 114%
- viability, T/C (second compound 0.1 µM, first compound 0.0316 µM): 99.8%
- viability, T/C (second compound 0.1 µM, first compound 0.1 µM): 89.5%
- viability, T/C (second compound 0.1 µM, first compound 0.316 µM): 105%
- viability, T/C (second compound 0.1 µM, first compound 1 µM): 91.3%
- viability, T/C (second compound 0.1 µM, first compound 3.16 µM): 102%
- viability, T/C (second compound 0.1 µM, first compound 10 µM): 120%
- viability, T/C (second compound 0.316 µM, first compound 0.0316 µM): 82.6%
- viability, T/C (second compound 0.316 µM, first compound 0.1 µM): 91.8%
- viability, T/C (second compound 0.316 µM, first compound 0.316 µM): 92%
- viability, T/C (second compound 0.316 µM, first compound 1 µM): 108%
- viability, T/C (second compound 0.316 µM, first compound 3.16 µM): 110%
- viability, T/C (second compound 0.316 µM, first compound 10 µM): 97.1%
- viability, T/C (second compound 1 µM, first compound 0.0316 µM): 81.3%
- viability, T/C (second compound 1 µM, first compound 0.1 µM): 79.8%
- viability, T/C (second compound 1 µM, first compound 0.316 µM): 91.6%
- viability, T/C (second compound 1 µM, first compound 1 µM): 91.5%
- viability, T/C (second compound 1 µM, first compound 3.16 µM): 98.9%
- viability, T/C (second compound 1 µM, first compound 10 µM): 94.3%
- viability, T/C (second compound 3.16 µM, first compound 0.0316 µM): 34.3%
- viability, T/C (second compound 3.16 µM, first compound 0.1 µM): 44.6%
- viability, T/C (second compound 3.16 µM, first compound 0.316 µM): 40.6%
- viability, T/C (second compound 3.16 µM, first compound 1 µM): 41%
- viability, T/C (second compound 3.16 µM, first compound 3.16 µM): 47%
- viability, T/C (second compound 3.16 µM, first compound 10 µM): 40.4%
- viability, T/C (second compound 10 µM, first compound 0.0316 µM): 28.9%
- viability, T/C (second compound 10 µM, first compound 0.1 µM): 31.5%
- viability, T/C (second compound 10 µM, first compound 0.316 µM): 34.7%
- viability, T/C (second compound 10 µM, first compound 1 µM): 22.7%
- viability, T/C (second compound 10 µM, first compound 3.16 µM): 22.9%
- viability, T/C (second compound 10 µM, first compound 10 µM): 46.4%

SMILES: COc1ccc([C@@H](O)c2cc(-c3ncnc4cc(N5CCOCC5)ccc34)c(F)cc2Cl)nn1
- viability, T/C (compound 0.0316 µM): 88.9% and 85.9% and 100%
- viability, T/C (compound 0.1 µM): 90.6% and 89.8% and 104%
- viability, T/C (compound 0.316 µM): 94.2% and 88.9% and 91.9%
- viability, T/C (compound 1 µM): 76.1% and 72.6% and 86.3%
- viability, T/C (compound 3.16 µM): 55.1% and 55.7% and 51.5%
- viability, T/C (compound 10 µM): 30.2% and 26.8% and 30.7%
- IC50 (curve of compound): 3.86 µM and 3.82 µM and 3.59 µM

SMILES: C=CC(=O)N1CCN(c2nc(=O)n(-c3c(C)ccnc3C(C)C)c3nc(-c4c(O)cccc4F)c(F)cc23)C(C)C1 (stereo not given)
- viability, T/C (compound 0.0316 µM): 87.7% and 105% and 106%
- viability, T/C (compound 0.1 µM): 103% and 97.4% and 81.4%
- viability, T/C (compound 0.316 µM): 95.8% and 89.4% and 109%
- viability, T/C (compound 1 µM): 96.2% and 111% and 105%
- viability, T/C (compound 3.16 µM): 113% (2×) and 100%
- viability, T/C (compound 10 µM): 115% and 100% and 101%
- IC50 (curve of compound): > 10 µM

SMILES: CCc1c2c(nc3ccc(O)cc13)-c1cc3c(c(=O)n1C2)COC(=O)[C@]3(O)CC
- viability, T/C (compound 0.000999 µM): 87.3% and 77.7% and 87.8%
- viability, T/C (compound 0.00316 µM): 62.7% and 59.7% and 52.4%
- viability, T/C (compound 0.00999 µM): 38% and 36% and 36.3%
- viability, T/C (compound 0.0316 µM): 24% and 23.4% and 23.9%
- viability, T/C (compound 0.0999 µM): 15.9% and 15.4% and 13.3%
- viability, T/C (compound 0.316 µM): 8.77% and 9.22% and 10.1%
- IC50 (curve of compound): 0.00578 µM and 0.00506 µM and 0.00418 µM

SMILES: CN(C)c1ccc(Nc2c3ccc(NC(=O)CCN4CCCC4)cc3nc3cc(NC(=O)CCN4CCCC4)ccc23)cc1
- viability, T/C (compound 0.0316 µM): 98.1% [middle of 12 runs]
- viability, T/C (compound 0.1 µM): 101% [middle of 12 runs]
- viability, T/C (compound 0.316 µM): 94.1% [middle of 12 runs]
- viability, T/C (compound 1 µM): 94.9% [middle of 12 runs]
- viability, T/C (compound 3.16 µM): 90.3% [middle of 12 runs]
- viability, T/C (compound 10 µM): 81.3% [middle of 12 runs]
- IC50 (compound alone, run of 03/26/2024): > 10 µM

— PubChem BioAssay AID2060499 (Molecular Pharmacology Branch, DTP, NCI, 2025)
